Source: patent US7365096B2, “Methods for selectively inhibiting Janus tyrosine kinase 3 (Jak3)” (Board of Regents, The University of Texas System, priority 2002, dated 2008)
Entries after “also recorded” stand apart in the source; their conditions may differ.

Legend:
[1] = Oral bioavailability estimated from allograft survival p.o. versus i.v.; conditions: ACI, rat, in vivo, 80 mg/kg p.o. gave similar survivals as 10 mg/kg i.v.
Method: To test the in vivo effects, recipients of kidney allografts were treated with 649641P (NC1153) for 7 days beginning immediately after transplantation. […] A mean survival time (MST) and SD was calculated for each group from 5-6 experiments.

[2] = system: LEW or third-party heart allografts; assay: Adoptive transfer of T cells from tolerant recipients into irradiated ACI heart allograft recipients; format: in vivo, rat
Method: ACI rat recipients of LEW kidney allografts were treated for 14 days with NC1153 delivered by daily oral gavage. […] ACI rat recipients of LEW kidney allografts were treated for 7 days and thereafter 3×/week up to 90 days with 160 mg/kg NC1153 delivered by daily oral gavage. […] The mechanism of tolerance was examined when irradiated (400 rads) ACI recipients of LEW heart allografts were adoptively transferred with 30×10^6 purified T cells from tolerant recipients.

Jak3 = molecular target: T1, Jak3 (Homo sapiens, UniProt P52333); assay: IL-2 activated Jak3 tyrosine phosphorylation in YT cells (Western blot); format: cell-based; parameters: endogenous in cells; host or cells: human YT cells; conditions: 1-100 μM, 2 hours, 100 nM IL-2
T1 sequence (P52333 1-1124): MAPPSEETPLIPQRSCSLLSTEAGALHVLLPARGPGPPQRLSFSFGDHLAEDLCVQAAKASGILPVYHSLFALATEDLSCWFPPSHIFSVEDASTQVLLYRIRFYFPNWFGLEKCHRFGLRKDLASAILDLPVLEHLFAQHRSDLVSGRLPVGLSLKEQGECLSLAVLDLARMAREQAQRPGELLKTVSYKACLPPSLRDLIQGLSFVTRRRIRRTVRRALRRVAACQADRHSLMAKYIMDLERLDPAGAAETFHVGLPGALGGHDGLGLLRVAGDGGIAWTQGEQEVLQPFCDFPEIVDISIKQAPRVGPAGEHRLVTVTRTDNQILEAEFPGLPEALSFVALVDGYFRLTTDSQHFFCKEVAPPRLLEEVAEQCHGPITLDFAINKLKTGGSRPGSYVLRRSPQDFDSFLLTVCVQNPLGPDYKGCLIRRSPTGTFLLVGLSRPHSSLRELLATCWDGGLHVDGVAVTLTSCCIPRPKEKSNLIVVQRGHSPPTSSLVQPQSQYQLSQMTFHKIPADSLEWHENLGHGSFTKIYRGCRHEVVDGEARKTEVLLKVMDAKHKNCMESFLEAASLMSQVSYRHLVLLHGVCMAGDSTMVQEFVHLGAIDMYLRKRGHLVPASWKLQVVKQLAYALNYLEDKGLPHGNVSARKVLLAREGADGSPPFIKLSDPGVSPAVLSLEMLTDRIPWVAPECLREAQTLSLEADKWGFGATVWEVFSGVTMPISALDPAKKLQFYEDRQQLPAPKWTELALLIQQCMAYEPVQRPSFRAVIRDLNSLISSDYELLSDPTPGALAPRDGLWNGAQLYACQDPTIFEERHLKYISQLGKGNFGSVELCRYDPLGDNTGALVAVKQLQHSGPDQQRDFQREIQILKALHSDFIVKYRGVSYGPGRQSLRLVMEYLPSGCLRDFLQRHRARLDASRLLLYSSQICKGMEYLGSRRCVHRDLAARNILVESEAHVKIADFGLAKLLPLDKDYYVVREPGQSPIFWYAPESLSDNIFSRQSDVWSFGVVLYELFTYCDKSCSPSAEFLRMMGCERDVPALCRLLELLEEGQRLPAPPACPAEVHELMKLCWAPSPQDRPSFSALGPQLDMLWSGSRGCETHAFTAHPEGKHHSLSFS
Method: Solubilization of membrane proteins, immunoprecipitation, and Western blot analysis. Frozen cell pellets were thawed on ice and solubilized in 1% TX-100 lysis buffer (10^8 cells/ml) and clarified by centrifugation, as previously described.^16 For human T-cells, supernates were incubated rotating end over end for 2 hours at 4° C. with either 5 μl/ml polyclonal rabbit antisera raised against peptides derived from the unique COOH-termini of Jak3 (amino acid [a.a.] 1104-1124), carboxyl termini of human Stat5a (a.a. 775-794) or Stat5b (a.a. 777-787).^26 Ab and immunoprecipitated proteins were captured by incubation for 30 minutes with Protein A-Sepharose beads (Pharmacia, Piscataway, N.J.), sedimented for purification, and eluted by boiling in 2×SDS-sample buffer (20% Glycerol, 10% 2-Mercaptoethanol, 4.6% SDS, 0.004% Bromophenol blue in 0.125 M Tris pH 6.8) for 4 minutes. For phosphoMapk assays, approximately 25 μg of total cell lysate was dissociated in SDS-sample buffer and separated on 10% (all others on 7.5%) SDS-PAGE under reducing conditions. […]

CN(C)CC1CCCCCCCCCC(CN(C)C)C1=O (mixture of isomers) [649641P (NC1153)]
bioavailability [1]: ~12.5% | rejection of LEW heart allografts after transfer of tolerant T cells ([2]; irradiated (400 rads) ACI recipients, 30×10^6 T cells from NC1153-tolerant recipients, irradiated controls 15±1.0): 40.0±15.0 days | rejection of third-party heart allografts after transfer of tolerant T cells ([2]; irradiated ACI recipients, T cells from NC1153-tolerant recipients, n=2): 12±1.0 days | tyrosine phosphorylation of Jak3 (Jak3): inhibited in a dose-dependent fashion; also recorded: inhibited tyrosine phosphorylation
